The OligoGym collection
“And” between values parts separate entries of the source, which are not always exact repeats. Identical values can stand only once. After the bases stand the sugars from the 5' end (letter, count) and the backbone: PS all phosphorothioate, else s phosphorothioate and o phosphodiester by linkage. Methylation of C is not given here. e = 2'-O-(2-methoxyethyl) (MOE); k = constrained ethyl (cEt); d = 2'-deoxy (DNA)

Molecular target: SOD1
Settings: ASO

## GAGTTTTATAAAACTAT (sugars e3 k2 d7 k2 e3, PS)
HepG2, 3 µM
  target mRNA inhibition: 6%

## GATAACAGATGAGTTAA (sugars e2 k2 d9 k2 e2, PS)
HepG2, 4 µM
  target mRNA inhibition: 28%

## GATAACAGATGAGTTAA (sugars e3 k2 d7 k2 e3, PS)
HepG2, 3 µM
  target mRNA inhibition: 11%

## GATACATTTCTACAGCT (sugars e2 k2 d8 k2 e3, PS)
HepG2, 4 µM
  target mRNA inhibition: 64%

## GATACATTTCTACAGCTA (sugars e5 d8 e5, linkages s1 o3 s9 o2 s2)
A431, 0.12 µM
  target mRNA inhibition: 7%
A431, 0.6 µM
  target mRNA inhibition: 15%
A431, 3 µM
  target mRNA inhibition: 39%
A431, 15 µM
  target mRNA inhibition: 52%
HepG2, 0.222 µM
  target mRNA inhibition: 28%
HepG2, 0.667 µM
  target mRNA inhibition: 59%
HepG2, 2 µM
  target mRNA inhibition: 73%
HepG2, 6 µM
  target mRNA inhibition: 85%

## GATAGAGGATTAAAGTG (sugars e3 k2 d7 k2 e3, PS)
HepG2, 3 µM
  target mRNA inhibition: 8%

## GATCATAAATCAGTTTC (sugars e2 k2 d8 k2 e3, PS)
HepG2, 5 µM
  target mRNA inhibition: 34%

## GATCCCAATTACACCAC (sugars e3 k2 d7 k2 e3, PS)
HepG2, 3 µM
  target mRNA inhibition: 3%

## GATGCCCTGCACTGGGCCGT (sugars e5 d10 e5, PS)
HepG2, 4 µM
  target mRNA inhibition: 15%

## GATTAAAGTGAGGACCT (sugars e3 k2 d7 k2 e3, PS)
HepG2, 3 µM
  target mRNA inhibition: 8%

## GATTACAGTGTTTAATG (sugars e2 k2 d9 k2 e2, PS)
HepG2, 5 µM
  target mRNA inhibition: 61%

## GATTACAGTGTTTAATG (sugars e3 k2 d7 k2 e3, PS)
HepG2, 3 µM
  target mRNA inhibition: 10%

## GATTCTTTTAATAGCCTCAT (sugars e5 d10 e5, PS)
HepG2, 5 µM
  target mRNA inhibition: 4%

## GCAGGAGACTACGACGCAAA (sugars e5 d10 e5, PS)
HepG2, 4 µM
  target mRNA inhibition: 33%

## GCAGGATAACAGATGAG (sugars e2 k2 d8 k2 e3, PS)
HepG2, 0.1875 µM
  target mRNA inhibition: 26%
HepG2, 0.75 µM
  target mRNA inhibition: 67%
HepG2, 3 µM
  target mRNA inhibition: 84%
HepG2, 4 µM
  target mRNA inhibition: 79%
HepG2, 12 µM
  target mRNA inhibition: 93%

## GCAGGATAACAGATGAG (sugars e2 k2 d9 k2 e2, PS)
HepG2, 0.1875 µM
  target mRNA inhibition: 31%
HepG2, 0.75 µM
  target mRNA inhibition: 75%
HepG2, 3 µM
  target mRNA inhibition: 90%
HepG2, 4 µM
  target mRNA inhibition: 86% and 83%
HepG2, 12 µM
  target mRNA inhibition: 89% and 97%

## GCCCAAGTCATCTGCTT (sugars e3 k2 d7 k2 e3, PS)
HepG2, 3 µM
  target mRNA inhibition: 93%

## GCCGTCGCCCTTCAGCA (sugars e2 k2 d8 k2 e3, PS)
HepG2, 4 µM
  target mRNA inhibition: 64%

## GCCTCAGACTACATCCA (sugars e3 k2 d7 k2 e3, PS)
HepG2, 3 µM
  target mRNA inhibition: 43%

## GCGATCCCAATTACACC (sugars e2 k2 d9 k2 e2, PS)
HepG2, 4 µM
  target mRNA inhibition: 58%

## GCGATCCCAATTACACC (sugars e3 k2 d7 k2 e3, PS)
HepG2, 3 µM
  target mRNA inhibition: 19%

## GCTTGAATGACAAAGAA (sugars e2 k2 d9 k2 e2, PS)
HepG2, 5 µM
  target mRNA inhibition: 32%

## GGAATGTTTATTGGGCG (sugars e2 k2 d9 k2 e2, PS)
HepG2, 4 µM
  target mRNA inhibition: 58%

## GGATAACAGATGAGTTAAGG (sugars e5 d10 e5, PS)
HepG2, 5 µM
  target mRNA inhibition: 48%

## GGATACATTTCTACAGC (sugars e2 k2 d9 k2 e2, linkages s1 o3 s9 o1 s2)
A431, 0.12 µM
  target mRNA inhibition: 4%
A431, 0.6 µM
  target mRNA inhibition: 12%
A431, 3 µM
  target mRNA inhibition: 36%
A431, 15 µM
  target mRNA inhibition: 51%
HepG2, 0.222 µM
  target mRNA inhibition: 62%
HepG2, 0.667 µM
  target mRNA inhibition: 78%
HepG2, 2 µM
  target mRNA inhibition: 95%
HepG2, 6 µM
  target mRNA inhibition: 91%

## GGATACATTTCTACAGC (sugars e4 d9 k2 e2, linkages s1 o3 s9 o1 s2)
A431, 0.062 µM
  target mRNA inhibition: 0%
A431, 0.185 µM
  target mRNA inhibition: 1%
A431, 0.556 µM
  target mRNA inhibition: 13%
A431, 1.667 µM
  target mRNA inhibition: 28%
A431, 5 µM
  target mRNA inhibition: 42%
A431, 15 µM
  target mRNA inhibition: 55%
SH-SY5Y, 0.062 µM
  target mRNA inhibition: 10%
SH-SY5Y, 0.185 µM
  target mRNA inhibition: 3%
SH-SY5Y, 0.556 µM
  target mRNA inhibition: 23%
SH-SY5Y, 1.667 µM
  target mRNA inhibition: 35%
SH-SY5Y, 5 µM
  target mRNA inhibition: 77%
SH-SY5Y, 15 µM
  target mRNA inhibition: 78%

## GGATTCTTTTAATAGCC (sugars e2 k2 d9 k2 e2, PS)
HepG2, 5 µM
  target mRNA inhibition: 19%

## GGCCTCAGACTACATCC (sugars e2 k2 d8 k2 e3, PS)
HepG2, 4 µM
  target mRNA inhibition: 70%

## GGCCTCAGACTACATCC (sugars e2 k2 d9 k2 e2, PS)
HepG2, 0.1875 µM
  target mRNA inhibition: 4%
HepG2, 0.75 µM
  target mRNA inhibition: 50%
HepG2, 3 µM
  target mRNA inhibition: 68%
HepG2, 4 µM
  target mRNA inhibition: 76%
HepG2, 12 µM
  target mRNA inhibition: 86%

## GGCCTCAGACTACATCC (sugars e3 k2 d7 k2 e3, PS)
HepG2, 3 µM
  target mRNA inhibition: 24%

## GGCGATCCCAATTACACCAC (sugars e5 d8 e7, linkages s1 o3 s10 o3 s2)
A431, 0.062 µM
  target mRNA inhibition: 0%
A431, 0.185 µM
  target mRNA inhibition: 9%
A431, 0.556 µM
  target mRNA inhibition: 0%
A431, 1.667 µM
  target mRNA inhibition: 0%
A431, 5 µM
  target mRNA inhibition: 4%
A431, 15 µM
  target mRNA inhibition: 0%
SH-SY5Y, 0.062 µM
  target mRNA inhibition: 5%
SH-SY5Y, 0.185 µM
  target mRNA inhibition: 2%
SH-SY5Y, 0.556 µM
  target mRNA inhibition: 16%
SH-SY5Y, 1.667 µM
  target mRNA inhibition: 25%
SH-SY5Y, 5 µM
  target mRNA inhibition: 36%
SH-SY5Y, 15 µM
  target mRNA inhibition: 61%

## GGCTTGAATGACAAAGA (sugars e2 k2 d9 k2 e2, PS)
HepG2, 5 µM
  target mRNA inhibition: 44%

## GGTCCTGGTTCCGAGGACTG (sugars e5 d10 e5, PS)
HepG2, 4 µM
  target mRNA inhibition: 14%

## GGTTCCGAGGACTGCAACGG (sugars e5 d10 e5, PS)
HepG2, 4 µM
  target mRNA inhibition: 35%

## GGTTTTTATTCACAGGC (sugars e2 k2 d8 k2 e3, PS)
HepG2, 5 µM
  target mRNA inhibition: 38%

## GTCACACAATTACACTT (sugars e2 k2 d9 k2 e2, PS)
HepG2, 5 µM
  target mRNA inhibition: 35%

## GTCATTGAAACAGACAT (sugars e2 k2 d8 k2 e3, PS)
HepG2, 5 µM
  target mRNA inhibition: 2%

## GTCTCCAACATGCCTCT (sugars e3 k2 d7 k2 e3, PS)
HepG2, 3 µM
  target mRNA inhibition: 8%

## GTCTGGCAAAATACAGG (sugars e2 k2 d8 k2 e3, PS)
HepG2, 5 µM
  target mRNA inhibition: 30%

## GTGAGGACCTGCACTGGTAC (sugars e5 d10 e5, linkages s1 o3 s11 o3 s1)
A431, 0.12 µM
  target mRNA inhibition: 0%
A431, 0.6 µM
  target mRNA inhibition: 17%
A431, 3 µM
  target mRNA inhibition: 0%
A431, 15 µM
  target mRNA inhibition: 16%
HepG2, 0.222 µM
  target mRNA inhibition: 0%
HepG2, 0.667 µM
  target mRNA inhibition: 16%
HepG2, 2 µM
  target mRNA inhibition: 70%
HepG2, 3 µM
  target mRNA inhibition: 50%
HepG2, 6 µM
  target mRNA inhibition: 35%

## GTGATCATAAATCAGTT (sugars e2 k2 d9 k2 e2, PS)
HepG2, 5 µM
  target mRNA inhibition: 48%

## GTGCCATACAGGGTTTT (sugars e3 k2 d7 k2 e3, PS)
HepG2, 3 µM
  target mRNA inhibition: 7%

## GTGTTTAATGTTTATCA (sugars e2 k2 d8 k2 e3, PS)
HepG2, 0.1875 µM
  target mRNA inhibition: 44%
HepG2, 0.75 µM
  target mRNA inhibition: 71%
HepG2, 3 µM
  target mRNA inhibition: 83%
HepG2, 5 µM
  target mRNA inhibition: 86%
HepG2, 12 µM
  target mRNA inhibition: 84%

## GTGTTTAATGTTTATCA (sugars e2 k2 d9 k2 e2, PS)
HepG2, 0.1875 µM
  target mRNA inhibition: 42%
HepG2, 0.75 µM
  target mRNA inhibition: 68%
HepG2, 3 µM
  target mRNA inhibition: 86%
HepG2, 5 µM
  target mRNA inhibition: 86%
HepG2, 12 µM
  target mRNA inhibition: 89%

## GTGTTTAATGTTTATCA (sugars e2 k2 d9 k2 e2, linkages s1 o3 s9 o1 s2)
A431, 0.12 µM
  target mRNA inhibition: 22%
A431, 0.6 µM
  target mRNA inhibition: 57%
A431, 3 µM
  target mRNA inhibition: 73%
A431, 15 µM
  target mRNA inhibition: 84%
HepG2, 0.222 µM
  target mRNA inhibition: 58%
HepG2, 0.667 µM
  target mRNA inhibition: 68%
HepG2, 2 µM
  target mRNA inhibition: 96%
HepG2, 6 µM
  target mRNA inhibition: 83%

## GTGTTTAATGTTTATCAG (sugars e5 d8 e5, linkages s1 o3 s9 o2 s2)
A431, 0.12 µM
  target mRNA inhibition: 1%
A431, 0.6 µM
  target mRNA inhibition: 15%
A431, 3 µM
  target mRNA inhibition: 36%
A431, 15 µM
  target mRNA inhibition: 50%
HepG2, 0.222 µM
  target mRNA inhibition: 20%
HepG2, 0.667 µM
  target mRNA inhibition: 43%
HepG2, 2 µM
  target mRNA inhibition: 56%
HepG2, 6 µM
  target mRNA inhibition: 81%
